Source: patent US11311524B2, “Pharmaceutical composition used for treatment of HTLV-1-associated myelopathy” (DAIICHI SANKYO COMPANY, LIMITED, priority 2017, dated 2022)
Like-named read-outs stand apart in the source and are kept apart here.

Key:
[1] = system: HTLV-1 infected cells in HAM patient's PBMC; experiment: HTLV-1 pro-viral load (infected cell rate) in HAM patient-derived PBMC by real time PCR; type: cell-based, human; conditions: 12 days culture; for Reduction in HTLV-1 pro-viral load: 1000 nM, average of all HAM patients; for Cases in which HTLV-1 pro-viral load in HAM patient's PBMC decreases: PBMC of 8 HAM patients
Description: PBMC taken from 8 HAM patients were suspended in a culture medium (RPMI1640 culture medium containing 10% FBS) and seeded in a 48-well plate in a ratio of 5×10^5 cells per well, and compound A or compound B was added so as to provide a final concentration of 1, 10, 100 or 1000 nM. The culture solution of 0.5 mL in total was cultured at 37° C. in 5% CO2 conditions for 12 days. A group treated with DMSO and a group treated with PSL (1 μg/mL) were used as controls. Day 12 after initiation of culture, the culture solution was centrifuged, and thereafter, the cell suspension was recovered from each of the cultures carried out under different conditions and centrifuged. After the supernatant was removed, the cell pellet was subjected to genomic DNA extraction. The genome DNA extracted was subjected to real time PCR to measure HTLV-1 pro-viral load (infected cell rate) (Yamano et al., Blood. 2002, 99 (1): 88-94). Based on the HTLV-1 pro-viral load in cells, which were obtained by adding DMSO to each of the HAM patient's PBMC and culturing the PBMC, as 100%, the relative value of HTLV-1 pro-viral load in a group treated with compound A, compound B or PSL was calculated, and then, an average value of 8 HAM patient cases was obtained. The significance test was carried out by using the Friedman test of GraphPad Prism6 (MDF).

HAM patient-derived PBMC = experiment: Autoproliferation (3H-thymidine incorporation) of HAM patient-derived PBMC without stimulation; type: cell-based, human; conditions: for GI50: Homo sapiens, 6 days culture, 3H-thymidine; for Suppression of autoproliferation activity of HAM patient-derived PBMC: no stimulation, relative to DMSO group
Description: PBMC taken from 8 HAM patients were suspended in culture mediums (RPMI1640 culture medium (wako) containing 10% FBS (GIBCO)), seeded in a 96-well round-bottom plate in a ratio of 1×10^5 cells per well (3 wells were used for each concentration), and compound A or compound B was added so as to provide a final concentration of 1, 10, 100 or 1000 nM. Culture was carried out at 37° C. in 5% CO2 conditions for 6 days. The DMSO treatment group and the PSL (1 μg/mL) treatment group were used as controls. Day 6 after initiation of culture, 1 μCi ^3H-thymidine was added to each well and culture was carried out at 37° C., in 5% CO2 conditions for 16 hours. Thereafter, the cultured cells were allowed to adsorb to a glass filter (Printed Filtermat A, PerkinElmer) by a cell harvester (Tomtec MH3, PerkinElmer), dried and impregnated with solid scintillator Meltilex-A (PerkinElmer). The amount of the ^3H-thymidine incorporated in the cells was measured by use of MicroBeta (WALLAC MicroBeta TriLux 1450-021) (Yamano et al., PLoS One. 2009, 4(8): e6517). Based on the average count of ^3H-thymidine in the DMSO treatment group of HAM patients' PBMC as 100%, the relative values of the groups treated with compound A, compound B and PSL (1 μg/mL) were obtained by calculation, and then, an average value of 8 HAM patient cases was obtained. A significance test was carried out in accordance with the Friedman test of GraphPad Prism6 (MDF).
The number of patients was increased to 16 and the same experiment as above was carried out.
Effect on HAM patient-derived PBMC was checked in the same manner as in the above Example except that an EZH2 inhibitor was used in place of compounds A and B.
As the EZH2 inhibitor, GSK126 (CAS No.: 1346574-57-9) and E7438 (CAS No.: 1403254-99-8) were used. The concentration for treatment was 1, 10, 100, 1000 or 10000 nM in terms of final concentration. In the experiment, PBMC samples taken from the 8 persons before the number of cases increased in the above were used.

[2] = PBMC of 8 HAM patients, read-out: GI50, autoproliferation activity of HAM patient-derived PBMC
[3] = PBMC of 16 HAM patients, read-out: GI50, spontaneous proliferation activity of HAM patient-derived PBMC

Question: Which results are given for `Cc1cc(C)c(CNC(=O)c2cc(Cl)c3c(c2C)O[C@@](C)([C@H]2CC[C@H](N(C)C)CC2)O3)c(=O)[nH]1` [compound B, (2R)-7-chloro-2-[trans-4-(dimethylamino)cyclohexyl]-N-[(4,6-dimethyl-2-oxo-1,2-dihydropyridin-3-yl)methyl]-2,4-dimethyl-1,3-benzodioxole-5-carboxamide]?
Answer: Reduction in HTLV-1 pro-viral load [1]: significant reduction in pro-viral load; Cases in which HTLV-1 pro-viral load in HAM patient's PBMC decreases [1]: 5 out of 8; GI50 (HAM patient-derived PBMC; [2]): 33.9 nM; GI50 (HAM patient-derived PBMC; [3]): 25.9 nM; Suppression of autoproliferation activity of HAM patient-derived PBMC (HAM patient-derived PBMC): suppressed autoproliferation activity of PBMC in all the eight HAM patient cases, in a concentration-dependent manner

Question: How did the “Reduction in HTLV-1 pro-viral load” value [1] turn out when `Cc1cc(C)c(CNC(=O)c2cc(Br)c3c(c2C)O[C@@](C)([C@H]2CC[C@H](N(C)C)CC2)O3)c(=O)[nH]1` [compound A, (2R)-7-bromo-2-[trans-4-(dimethylamino)cyclohexyl]-N-[(4,6-dimethyl-2-oxo-1,2-dihydropyridin-3-yl)methyl]-2,4-dimethyl-1,3-benzodioxole-5-carboxamide] was run?
Answer: The value was “significant reduction in pro-viral load”.

Question: What about the “Cases in which HTLV-1 pro-viral load in HAM patient's PBMC decreases” value [1] of the same compound?
Answer: The value was 5 out of 8.

Question: What about the GI50 (HAM patient-derived PBMC; [2]) of the same compound?
Answer: Its GI50 is 73 nM.

Question: And the GI50 (HAM patient-derived PBMC; [3])?
Answer: The GI50 was 45.6 nM.

Question: What about the “Suppression of autoproliferation activity of HAM patient-derived PBMC” value (HAM patient-derived PBMC) of the same compound?
Answer: The value was “suppressed autoproliferation activity of PBMC in all the eight HAM patient cases, in a concentration-dependent manner”.
